Measurements as given in PMC5735564 (Journal for Immunotherapy of Cancer, 2017).
pIC50: −log10 of the molar value. Entries after “also recorded” stand apart in the source; their conditions may differ. Like-named read-outs stand apart in the source and are kept apart here.

What was measured:
LLC tumors [1] = experiment: LLC tumors in conditional Arg1 deleted mice; assay type: in vivo, mouse; conditions: 100 mg/kg every 12 h for 14 days, oral
Procedure: Arg1 floxed mice were crossed to the Tie2-Cre deleter strain (The Jackson Laboratory) as previously described. Experimental mice were generated from crossing Arg1 ^Flox/Flox; Tie2-Cre ^+ males with Arg1 ^Flox/Flox; Tie2-Cre ^− females, with Cre negative littermates serving as wild-type controls. […] LLC cells (10^6 per mouse) were injected s.c. in the flank region. […] Mice were euthanized, and tumors excised and weights recorded. Myeloid deletion of Arg1 was confirmed via western blotting of IL-4-stimulated bone marrow-derived macrophages for all animals.

CT26 tumors = experiment: CT26 syngeneic tumor model
Procedure: Female wild-type C57BL/6 and Balb/c mice (5–6 weeks old) were purchased from Charles River Laboratories (Hollister, CA). Severe combined immune deficient (SCID, B6.CB17-PrkdcSCID/SzJ) and Pmel-1 TCR transgenic (B6.Cg-Thy1a/Cy Tg(TcraTcrb)8Rest/J) mice (5–6 weeks old) were purchased from The Jackson Laboratory (Bar Harbor, ME). All mice were housed and treated in accordance with Institutional Animal Care and Use Committee guidelines. For the 4T1 tumor model, 10^5 cells were injected orthotopically into the mammary fat pad; for all other tumor models, 10^6 cells were injected subcutaneously (s.c.) in the right flank. […] Control groups received vehicle (water) twice daily by gavage. Tumor volume measured by digital caliper (length × width × width/2) and body weight were recorded three times per week. Animals were euthanized when tumors necrotized or volumes reached 2000 mm^3. For the CT26 model, anti-PD-L1 antibody (5 mg/kg, clone 10F.9G2, BioXCell, West Lebanon, NH) was injected intraperitoneally (i.p.) on days 5, 7, 9, 11, 13, and 15. […] Gemcitabine (Selleckchem, Houston, TX) was dosed 50 mg/kg i.p. on days 10 and 16 for the CT26 model, 60 mg/kg i.p. on days 6 and 10 for the LLC model, or 30 mg/kg i.p. on day 5 for the 4T1 model [17, 18]. […] For CD8^+ cell depletion, mice were injected i.p. with anti-CD8 antibody (25 mg/kg, clone 2.43, BioXCell) on days −1, 0, + 5, and +10. For NK cell depletion, mice were injected i.p. with anti-NK1.1 antibody (25 mg/kg, clone PK136, BioXCell) in the LLC and B16 models or with anti-Asialo GM1 sera (20 μL, Wako Chemicals, Richmond, VA) in the CT26 model, per the same schedule as anti-CD8.
Excised tumors were placed on ice in RPMI-1640 medium containing 5% FBS, minced with a razor blade, and dissociated in RPMI-1640 supplemented with mouse tumor dissociation enzymes (Miltenyi Biotec, Bergisch Gladbach, Germany) on a GentleMACS Octo Dissociator With Heat (Miltenyi Biotec) according to the manufacturer’s instructions. Dissociated tumors were strained through 70 μm nylon mesh, washed with cold PBS containing 2% FBS, blocked with anti-CD16/CD32 (Fc block antibody, eBioscience), and stained for cell surface antigens. For B16 and 4T1 tumors, washed dissociated tumor cells were incubated with Dead Cell Removal MicroBeads (Miltenyi Biotec) and applied to a magnetic column prior to staining. For intracellular staining, cells were fixed and permeabilized using buffers purchased from R&D Systems or eBioscience for cytoplasmic or nuclear antigens, respectively. All tumor flow experiments were acquired on an Attune NxT flow cytometer and analyzed with FlowJo software version 10 (Ashland, OR), using fluorescence-minus-one controls for gating and single-stained OneComp eBeads (eBioscience) to set compensation matrices.

[2] = system: intracellular arginase in HepG2 cell line; experiment: Native arginase activity in intact HepG2 cells; assay type: cell-based, human; conditions: 10 mM L-arginine; urea in media after 24 h; N = 3; mean (±SD)
Procedure: (§1) Intracellular arginase activity was determined for the arginase-expressing HepG2 and K-562 cell lines as follows. […] The medium was harvested after 24 h and urea generated was determined with the QuantiChrom Urea Assay Kit. Wells containing media without cells were used as background controls.

[3] = system: human granulocytes co-cultured with autologous T cells; experiment: T cell/granulocyte co-culture assay (healthy donor); assay type: cell-based; conditions: for pIC50: Homo sapiens, T-cell, granulocytes to T cells 0.25 to 1
Procedure: T cells or NK cells were purified from healthy donor human blood or from murine splenocytes using a negative selection kit for the appropriate cell type and species from Stemcell Technologies. Isolated T cells or NK cells were loaded with carboxyfluorescein succinimidyl ester (CFSE, Thermo Fisher) and stimulated for 72–96 h in complete growth medium containing a minimum of either 50 μM L-arginine (NK cells) or 100 μM L-arginine (T cells). For T cell stimulation, a solution of 10 μg/mL anti-CD3 (human clones UCHT1 or OKT3; murine clone 145-2C11) was used to coat the wells of a 96-well plate and then T cells were stimulated on immobilized anti-CD3 in the presence of 2 μg/mL soluble anti-CD28 (human clone CD28.2; murine clone 37.51). NK cells were stimulated with recombinant IL-2. Proliferation was quantified by analyzing CFSE dilution by flow cytometry (Guava flow cytometer, Millipore, Billerica, MA or Attune NxT flow cytometer, ThermoFisher).
Freshly isolated granulocytes were incubated for 48 h at 37 °C, during which time they spontaneously activate as determined by increased surface expression of CD66b and scatter properties. T cells isolated from the same healthy donor using a pan-T cell isolation kit (Stemcell Technologies) were loaded with CFSE and plated with immobilized anti-CD3 and soluble anti-CD28 in the presence of the aged granulocytes. The cells were co-cultured at several ratios of granulocytes to T cells as indicated in the figure or at a fixed ratio of 4 T cells to 1 granulocyte. […] Granulocytic MDSC (G-MDSC) or granulocytes from cancer patients were isolated from whole blood purchased from Conversant Biologics. G-MDSCs were purified from the PBMC layer of a Ficoll gradient by positive selection for CD66b^+ cells. Granulocytes were purified from the RBC layer of a Ficoll gradient using Hetasep (Stemcell Technologies). […] Cytokines were quantified in the media from T cell co-culture assays using the Cytometric Bead Array kit according to the manufacturer’s instructions (BD Biosciences).

4T1 tumors = experiment: 4T1 orthotopic tumor model; assay type: in vivo, mouse
[4] = system: granulocytic MDSCs from a lung cancer patient / healthy donor T cells; experiment: T cell proliferation in G-MDSC-conditioned media (lung cancer patient); assay type: cell-based, human
Procedure: Freshly isolated granulocytes were incubated for 48 h at 37 °C, during which time they spontaneously activate as determined by increased surface expression of CD66b and scatter properties. T cells isolated from the same healthy donor using a pan-T cell isolation kit (Stemcell Technologies) were loaded with CFSE and plated with immobilized anti-CD3 and soluble anti-CD28 in the presence of the aged granulocytes. The cells were co-cultured at several ratios of granulocytes to T cells as indicated in the figure or at a fixed ratio of 4 T cells to 1 granulocyte. Co-cultures were incubated for 3–4 days, at which time the medium was analyzed for L-arginine and L-ornithine by mass spectrometry and T cell proliferation was determined by flow cytometry. Granulocytic MDSC (G-MDSC) or granulocytes from cancer patients were isolated from whole blood purchased from Conversant Biologics. G-MDSCs were purified from the PBMC layer of a Ficoll gradient by positive selection for CD66b^+ cells. Granulocytes were purified from the RBC layer of a Ficoll gradient using Hetasep (Stemcell Technologies). Granulocytes and G-MDSCs were characterized by flow cytometry for CD66b expression. […] Cytokines were quantified in the media from T cell co-culture assays using the Cytometric Bead Array kit according to the manufacturer’s instructions (BD Biosciences).

[5] = Pharmacokinetic and pharmacodynamic study in LLC tumor-bearing mice; assay type: in vivo, mouse; conditions: oral dosing, pharmacodynamic effect
LLC tumors [6] = experiment: LLC tumors in SCID mice; assay type: in vivo, mouse; conditions: 100 mg/kg twice daily
Recombinant human Arg2 = molecular target: T1, Recombinant human Arg2 (Homo sapiens, UniProt P78540); experiment: Recombinant arginase activity assay (Arg2); assay type: biochemical; conditions: 20 mM L-arginine; N = 2; mean (±SD)
T1 construct: Recombinant human arginase 2 (Arg2) comprising amino acids 23–254 was purchased from US Biological; purchased US Biological (Salem, MA)
T1 sequence (P78540 23-354): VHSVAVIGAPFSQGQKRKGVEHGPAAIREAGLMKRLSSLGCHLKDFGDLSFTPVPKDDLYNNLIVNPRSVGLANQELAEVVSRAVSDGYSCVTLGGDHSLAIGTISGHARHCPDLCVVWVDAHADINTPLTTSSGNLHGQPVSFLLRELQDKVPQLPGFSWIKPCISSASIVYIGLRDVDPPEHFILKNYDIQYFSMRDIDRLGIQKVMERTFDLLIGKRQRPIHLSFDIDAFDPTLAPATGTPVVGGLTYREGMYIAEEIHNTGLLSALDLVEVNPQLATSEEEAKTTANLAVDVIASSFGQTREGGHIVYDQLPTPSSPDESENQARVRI
Procedure: Recombinant human arginase 2 (Arg2) comprising amino acids 23–254 was purchased from US Biological (Salem, MA). […] Activity was determined by a spectrophotometric assay using the QuantiChrom Urea Assay Kit (BioAssay Systems, Hayward, CA) or by quantification of the generation of ^13C(5)-L-ornithine from ^13C(6)-L-arginine using a SCIEX API4000 mass spectrometer (Applied Biosystems, Foster City, CA). Urea produced or ^13C(5)-L-ornithine peak areas were plotted and fitted to a four-parameter equation using GraphPad Prism software (San Diego, CA) to determine IC50 values.

[7] = system: granulocytes from a head and neck cancer patient / healthy donor T cells; experiment: T cell proliferation in granulocyte-conditioned media (head and neck cancer patient); assay type: cell-based, human
Procedure: Freshly isolated granulocytes were incubated for 48 h at 37 °C, during which time they spontaneously activate as determined by increased surface expression of CD66b and scatter properties. T cells isolated from the same healthy donor using a pan-T cell isolation kit (Stemcell Technologies) were loaded with CFSE and plated with immobilized anti-CD3 and soluble anti-CD28 in the presence of the aged granulocytes. The cells were co-cultured at several ratios of granulocytes to T cells as indicated in the figure or at a fixed ratio of 4 T cells to 1 granulocyte. Co-cultures were incubated for 3–4 days, at which time the medium was analyzed for L-arginine and L-ornithine by mass spectrometry and T cell proliferation was determined by flow cytometry. Granulocytic MDSC (G-MDSC) or granulocytes from cancer patients were isolated from whole blood purchased from Conversant Biologics. G-MDSCs were purified from the PBMC layer of a Ficoll gradient by positive selection for CD66b^+ cells. Granulocytes were purified from the RBC layer of a Ficoll gradient using Hetasep (Stemcell Technologies). Granulocytes and G-MDSCs were characterized by flow cytometry for CD66b expression. Freshly isolated G-MDSC or granulocytes were incubated in co-culture medium containing 100 μM L-arginine for 48 h, at which time the cells were removed and the G-MDSC- or granulocyte-conditioned media were used for incubating healthy donor CFSE-loaded T cells on immobilized anti-CD3/soluble anti-CD28 for 3–4 days. Cytokines were quantified in the media from T cell co-culture assays using the Cytometric Bead Array kit according to the manufacturer’s instructions (BD Biosciences).

[8] = system: intracellular arginase in K562 cell line; experiment: Native arginase activity in intact K-562 cells; assay type: cell-based, human; conditions: 10 mM L-arginine; urea in media after 24 h; N = 2; mean (±SD)
Procedure: as §1

LLC tumors [9] = experiment: LLC syngeneic tumor model; assay type: in vivo, mouse
B16 tumors = experiment: B16 syngeneic tumor model; assay type: in vivo, mouse
[10] = design: method as in PMID 20219858; conditions: nor-NOHA injected over a period of 10 weeks; cited from earlier work
tumor growth = system: tumor growth; design: method as in PMID 15313928; conditions: cited from earlier work
[11] = 100 mg/kg twice daily, depleting antibodies
[12] = flow cytometry, study day 14, 100 mg/kg BID
[13] = flow cytometry, study day 10, 100 mg/kg BID
[14] = 100 mg/kg twice daily for 23 days, CT26-inoculated mice

C[C@H](N)C(=O)N1C[C@H](CCCB(O)O)[C@](N)(C(=O)O)C1 [CB-1158]
tumor growth in Arg flox/flox; Tie2-Cre+ (ARG1ΔM) mice (LLC tumors [1]): no further reduction in tumor growth | tumor growth, single agent (CT26 tumors; 100 mg/kg twice daily, oral): significantly inhibited | efficacy after depletion of either CD8+ cells or NK cells (CT26 tumors; [11]): blocked the efficacy | tumor-infiltrating activated CD8+ CD25+ cytotoxic T cells vs vehicle (CT26 tumors; [12]): increase | pIC50 [2]: 4.49 | pIC50 ([3]; Fig. 1d left, read-out: IC50, consumption of L-arginine from the media by granulocytes): 6.39 | pIC50 ([3]; Fig. 1d right, read-out: IC50, granulocyte-mediated suppression of T cell proliferation): 6.69 | T cell proliferation restored, of the proliferation observed for T cells without granulocytes ([3]; co-culture with activated granulocytes): 90% | tumor growth, single agent (4T1 tumors; 100 mg/kg twice daily, oral): significantly inhibited; also recorded: modest effect | CD3+ T cells in the tumor vs vehicle (4T1 tumors; [13]): increase | NK cells in the tumor vs vehicle (4T1 tumors; [13]): increase | myeloid cells in the tumor vs vehicle (4T1 tumors; [13]): decrease | arginine depletion from the media [4]: blocked | T cell proliferation restored, of control levels ([4]; MDSCs to T cells 1 to 1): 99% | amount of L-arginine in plasma and tumors [5]: raised | efficacy in the SCID background (LLC tumors [6]): abrogated | pIC50 (Recombinant human Arg2): 6.53 | clinical observations and body weight (Tolerability in mice; [14]): no significant clinical observations or impact on body weight | tolerability (Tolerability in mice; [14]): well-tolerated | tolerability (Tolerability in mice; twice-daily oral dosing for at least 40 days): well-tolerated | arginine depletion from the media ([7]; granulocyte-conditioned media): blocked | T cell proliferation restored, of control levels ([7]; granulocyte-conditioned media, granulocytes to T cells 0.5 to 1): 79% | secretion of interferon-γ and granzyme-B into the media ([7]; media from Fig. 1f, Cytometric Bead Array): restored | pIC50 [8]: 3.86 | tumor growth, single agent (LLC tumors [9]; 100 mg/kg twice daily, oral): significantly inhibited | effect of depletion of CD8+ cells on efficacy (LLC tumors [9]; 100 mg/kg twice daily, study day 13): smaller effect | efficacy after depletion of NK cells (LLC tumors [9]; 100 mg/kg twice daily, study day 14): loss of efficacy | inflammatory cytokines in tumors vs vehicle (LLC tumors [9]; Luminex, 200 mg/kg twice daily for 14 days): increases | transcripts of interferon-responsive genes in tumors vs vehicle (LLC tumors [9]; Nanostring, 100 mg/kg twice daily for 13 days): increases | CD8+ T cells in the tumor vs vehicle (LLC tumors [9]; [12]): increase | CD68+ macrophages in the tumor vs vehicle (LLC tumors [9]; [12]): decrease | tumor growth, single agent (B16 tumors; 100 mg/kg twice daily, oral): significantly inhibited | efficacy after depletion of either CD8+ cells or NK cells (B16 tumors; [11]): blocked the efficacy | tumor-infiltrating activated CD8+ CD25+ cytotoxic T cells vs vehicle (B16 tumors; flow cytometry, study day 9, 100 mg/kg BID): increase

N=C(NO)NCC[C@H](N)C(=O)O [nor-NOHA]
tolerability [10]: well-tolerated | tumor growth (tumor growth; injection of nor-NOHA): reduced tumor growth | tolerability (tumor growth; multi-day studies in mice): well-tolerated

Nc1ccn([C@@H]2O[C@H](CO)[C@@H](O)C2(F)F)c(=O)n1 [Gemcitabine, gemcitabine, reference compound]
CD11b+ myeloid cells in the tumors (CT26 tumors; flow cytometry, study day 14): significant decrease
